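The compound was tested at five concentrations on cells cultured in 96-well plates, with a 48-hour exposure period. Abbreviation: GI50, concentration required for 50% inhibition of growth.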 The source made the active and inactive calls. No stated cut-off is given here; in the data, active = GI50 up to about 1.1 µM and inactive = higher.
Tests used:
Test in all cases: inhibition of tumour cell growth, NCI panel, 48 h
[1] = test system: SK-MEL-5
[2] = test system: SNB-75
[3] = test system: EKVX
[4] = test system: SNB-19
[5] = test system: U-251
[6] = test system: RPMI-8226
[7] = test system: HT-29
[8] = test system: NCI-H23
[9] = test system: IGROV-1
[10] = test system: UO-31
[11] = test system: SN12C
[12] = test system: KM12
[13] = test system: SK-MEL-28
[14] = test system: OVCAR-8
[15] = test system: ACHN
[16] = test system: CAKI-1
[17] = test system: 786-0
[18] = test system: UACC-62
[19] = test system: HCT-116
[20] = test system: SF-295

Measured: GI50

C[C@]12CC[C@H](OC(=O)Cc3ccc(N(CCCl)CCCl)cc3)CC1=CC[C@@H]1[C@@H]2CC[C@]2(C)C(=O)CC[C@@H]12
inactive: [1] > 100 µM | [2] > 100 µM | [3] > 100 µM | [4] > 100 µM | [5] > 100 µM | [6] > 100 µM | [7] > 100 µM | [8] > 100 µM | [9] > 100 µM | [10] > 100 µM | [11] > 100 µM | [12] > 100 µM | [13] > 100 µM | [14] > 100 µM | [15] > 100 µM | [16] > 100 µM

O=C(/C=C/c1ccccc1)Oc1cccc(O)c1
inactive: [1] 37.5 µM | [17] 77.8 µM | [18] > 100 µM | [2] 65 µM | [4] 20.2 µM | [5] 34.3 µM | [6] 9.55 µM | [7] 37.2 µM | [8] 63.8 µM | [9] 17.3 µM | [10] > 100 µM | [11] 44.1 µM | [19] 16.4 µM | [12] 19.1 µM | [13] 23.6 µM | [14] 44.3 µM | [15] > 100 µM | [16] 49.1 µM | [20] 17.8 µM

O=c1cnn(C/C=C\CO)c(=O)[nH]1
inactive: [1] > 100 µM | [2] > 100 µM | [3] > 100 µM | [4] > 100 µM | [5] > 100 µM | [6] > 100 µM | [8] > 100 µM | [9] > 100 µM | [10] > 100 µM | [11] > 100 µM | [12] > 100 µM | [13] > 100 µM | [14] > 100 µM | [15] > 100 µM | [16] > 100 µM

CSCCC(NC(=O)OCc1ccccc1)NC(=O)OCc1ccccc1
inactive: [1] > 100 µM | [2] > 100 µM | [4] > 100 µM | [5] > 100 µM | [6] > 100 µM | [7] > 100 µM | [8] > 100 µM | [9] > 100 µM | [10] > 100 µM | [11] > 100 µM | [19] > 100 µM | [13] > 100 µM | [14] > 100 µM | [15] > 100 µM | [16] > 100 µM | [20] > 100 µM

CN(C)c1ccc(/C=C/c2ccnc3ccc4ccccc4c23)cc1
inactive: [1] 71 µM | [17] 39.5 µM | [18] 53.1 µM | [2] 26.5 µM | [4] 33.9 µM | [5] 28.6 µM | [6] 79.4 µM | [7] 43.5 µM | [8] 52.4 µM | [9] 12.7 µM | [10] 45.6 µM | [11] 74.3 µM | [19] 36.5 µM | [12] 33.3 µM | [13] 38.5 µM | [14] 33.1 µM | [15] 22.8 µM | [16] 38.4 µM

CC1=CCC2CC1C(C(=O)c1c[nH]c3ccccc13)=NC2(C)C (configuration not stated)
inactive: [1] 37.6 µM | [17] 81.1 µM | [18] 25.2 µM | [3] 33.3 µM | [4] > 100 µM | [5] 34.5 µM | [6] 25.1 µM | [7] 51.1 µM | [8] 87.7 µM | [9] > 100 µM | [10] 48.8 µM | [11] 87.9 µM | [19] 50.4 µM | [12] 52.4 µM | [13] > 100 µM | [14] 56.5 µM | [15] 73.6 µM | [16] > 100 µM

COc1ccc2oc(-c3cccnc3)cc(=O)c2c1
inactive: [17] > 100 µM | [18] 80.7 µM | [2] 40.8 µM | [4] 97.1 µM | [5] > 100 µM | [6] 53 µM | [7] 59.4 µM | [8] > 100 µM | [9] 70.8 µM | [10] 27.2 µM | [11] 71.4 µM | [19] 80.7 µM | [12] > 100 µM | [13] > 100 µM | [15] 59.3 µM | [16] 42.7 µM | [20] > 100 µM

CC(=O)N(C)SCC(NC(=O)C(Cc1ccccc1)NC(=O)OCc1ccccc1)C(=O)NC(Cc1ccccc1)C(=O)NC(Cc1cn(C=O)c2ccccc12)C(=O)NC(CCCCNC(=O)OCc1ccccc1)C(=O)NC(C(=O)NC(CSN(C)C(C)=O)C(=O)NO)C(C)OCc1ccccc1 (configuration not stated)
inactive: [1] > 100 µM | [17] > 100 µM | [18] > 100 µM | [2] > 100 µM | [3] > 100 µM | [4] > 100 µM | [5] > 100 µM | [6] > 100 µM | [7] > 100 µM | [8] > 100 µM | [9] > 100 µM | [10] > 100 µM | [11] > 100 µM | [19] > 100 µM | [12] > 100 µM | [13] > 100 µM | [14] > 100 µM | [15] > 100 µM | [20] > 100 µM

Cc1cc(O)nc(NNC(C#N)c2ccc(O)cc2)n1 (configuration not stated)
inactive: [1] > 100 µM | [17] > 100 µM | [18] > 100 µM | [2] > 100 µM | [5] > 100 µM | [6] > 100 µM | [7] > 100 µM | [8] > 100 µM | [9] > 100 µM | [10] > 100 µM | [11] > 100 µM | [19] > 100 µM | [12] > 100 µM | [13] > 100 µM | [14] > 100 µM | [15] > 100 µM | [16] > 100 µM | [20] > 100 µM

Cc1ccc(S(=O)(=O)N(c2ccccc2F)C2CCCCC2O)cc1 (configuration not stated)
inactive: [1] 20.7 µM | [17] 65.6 µM | [18] 46.9 µM | [2] 20 µM | [3] 35.1 µM | [4] > 100 µM | [5] 46.6 µM | [6] 36.9 µM | [7] 43 µM | [8] 34.4 µM | [10] 33.1 µM | [11] 56.9 µM | [19] 18 µM | [12] 33.1 µM | [13] > 100 µM | [14] 78 µM | [15] 57.7 µM | [20] > 100 µM

O=C(NCCNCCO)N/N=C/c1cccc([N+](=O)[O-])c1
inactive: [1] > 100 µM | [17] > 100 µM | [18] > 100 µM | [2] > 100 µM | [5] > 100 µM | [6] > 100 µM | [7] > 100 µM | [8] > 100 µM | [9] > 100 µM | [10] > 100 µM | [11] > 100 µM | [19] > 100 µM | [12] > 100 µM | [13] > 100 µM | [14] > 100 µM | [15] > 100 µM | [16] > 100 µM | [20] > 100 µM
